Values quoted from earlier work as cited in patent publication US9744133B2, “Enhanced stability of novel liquid compositions” (Pfizer Inc., priority 2013, dated 2017).

Details: 25° C.

- Solubility in water: approximately 4 % by weight
Structure (SMILES): COc1ccccc1OCC(O)CO (stereo not shown) [Guaifenesin]
